Here are results for 25 compounds from patent publication US12617795B2, “Substituted 6,7-dihydro-5H-pyrrolo[3,4-d]pyrimidines, 5,7-dihydrofuro[3,4-d]pyrimidines, and pyrido[2,3-d]pyrimidines as KCC2 modulators” (Astrazeneca AB, priority 2020, dated 2026).

This assay has as its target T1, KCC2 (Homo sapiens, UniProt Q9H2X9).
T1 construct: expressed in transfected cells; host or cells: HEK293 cells electroporated (Maxcyte STX) with the pcDNA3.1 KCC2 plasmid
T1 sequence (Q9H2X9 1-1139): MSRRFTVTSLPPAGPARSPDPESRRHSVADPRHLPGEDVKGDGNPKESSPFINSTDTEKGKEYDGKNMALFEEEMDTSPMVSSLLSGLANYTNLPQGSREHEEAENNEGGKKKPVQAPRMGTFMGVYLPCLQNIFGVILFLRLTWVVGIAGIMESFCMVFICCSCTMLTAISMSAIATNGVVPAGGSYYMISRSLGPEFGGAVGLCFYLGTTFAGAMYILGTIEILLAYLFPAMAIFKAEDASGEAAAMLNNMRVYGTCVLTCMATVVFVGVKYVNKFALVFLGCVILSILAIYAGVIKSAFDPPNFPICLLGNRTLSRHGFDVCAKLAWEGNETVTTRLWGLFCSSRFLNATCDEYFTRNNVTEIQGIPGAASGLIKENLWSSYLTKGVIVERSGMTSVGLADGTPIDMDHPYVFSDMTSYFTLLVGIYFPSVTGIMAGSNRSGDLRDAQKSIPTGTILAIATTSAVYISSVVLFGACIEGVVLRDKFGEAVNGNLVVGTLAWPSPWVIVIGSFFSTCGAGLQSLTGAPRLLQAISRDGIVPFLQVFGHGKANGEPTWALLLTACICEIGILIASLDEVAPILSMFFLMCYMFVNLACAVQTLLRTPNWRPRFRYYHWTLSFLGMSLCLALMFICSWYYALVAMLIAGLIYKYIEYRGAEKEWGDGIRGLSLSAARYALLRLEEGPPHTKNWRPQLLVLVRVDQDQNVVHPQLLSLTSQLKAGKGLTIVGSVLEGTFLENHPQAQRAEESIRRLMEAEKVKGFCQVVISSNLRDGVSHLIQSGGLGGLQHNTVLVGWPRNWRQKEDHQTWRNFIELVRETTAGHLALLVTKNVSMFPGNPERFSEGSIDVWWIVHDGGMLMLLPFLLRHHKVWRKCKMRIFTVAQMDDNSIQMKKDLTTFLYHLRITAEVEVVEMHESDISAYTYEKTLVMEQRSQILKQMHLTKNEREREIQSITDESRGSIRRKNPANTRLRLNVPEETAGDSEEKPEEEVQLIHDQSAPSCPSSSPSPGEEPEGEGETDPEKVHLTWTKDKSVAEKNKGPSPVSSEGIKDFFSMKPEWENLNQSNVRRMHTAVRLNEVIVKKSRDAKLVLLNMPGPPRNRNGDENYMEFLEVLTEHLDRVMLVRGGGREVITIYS
In words: KCC2 thallium transport FLIPR-based assay (Tl+ influx in HEK293 cells expressing KCC2). It counts as cell-based. The settings on record: 90 min compound incubation at RT, thallium flux at 120 s used to determine EC50. Summed up: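 Transient electroporation of codon-optimised human KCC2 into HEK293 cells, plated and cultured 48 h before dye loading (1 h, RT). Compounds run as a 12-point 1:2 series from 100 μM top, 90 min RT in buffer containing bumetanide; Tl+ flux read by FLIPR after stimulus addition, 1 s intervals over 120 s, with the 120 s signal used for EC50.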

Each structure is given as a SMILES string.

Usually EC50 stands for the midpoint of the concentration-response curve. Take `Cc1cc(-c2nc(Nc3ccc(C4CCCCC4)cc3)c3c(n2)C(=O)N(C(C)C)C3)ccn1` [Example 44, 4-[(4-cyclohexylphenyl)amino]-2-(2-methylpyridin-4-yl)-6-(propan-2-yl)-5,6-dihydro-7H-pyrrolo[3,4-d]pyrimidin-7-one]: a half-maximal response (EC50) required 901 nM.
Take `CC(C)N1Cc2c(Nc3ccc(CC(F)(F)F)cc3)nc(N3CCO[C@H](C)C3)nc2C1=O` [Example 65, 2-[(2R)-2-methylmorpholin-4-yl]-6-(propan-2-yl)-4-{[4-(2,2,2-trifluoroethyl)phenyl]amino}-5,6-dihydro-7H-pyrrolo[3,4-d]pyrimidin-7-one]: the EC50 stood at 7650 nM. Compared with the last compound, the EC50 is about 8.5-fold higher.
The compound `CC(C)N1Cc2c(Nc3ccc(C4CCCCC4)cc3)nc(-n3ccnc3)nc2C1=O` [Example 79, 4-((4-cyclohexylphenyl)amino)-2-(1H-imidazol-1-yl)-6-isopropyl-5,6-dihydro-7H-pyrrolo[3,4-d]pyrimidin-7-one] yielded an EC50 of 6300 nM.
In turn, `CC(C)c1ccc(Nc2nc(N3CCOCC3C)nc3c2CN(C(C)C)C3=O)cc1` (stereo not shown) [Example 9, 2-(3-methylmorpholin-4-yl)-6-(propan-2-yl)-4-{[4-(propan-2-yl)phenyl]amino}-5,6-dihydro-7H-pyrrolo[3,4-d]pyrimidin-7-one] showed an EC50 of 6140 nM. This EC50 and that of the compound before are within 1.5-fold of each other.
In turn, `c1cc(C2CCCCC2)ccc1Nc1nc(N2CCOC(C3CC3)C2)nc2c1COC2` (stereo not shown) [Example 92, N-(4-cyclohexylphenyl)-2-(2-cyclopropyl-morpholin-4-yl)-5,7-dihydrofuro[3,4-d]pyrimidin-4-amine] gave an EC50 of 2370 nM. This EC50 lies about 2.6-fold lower than the previous one.
`CC(C)c1ccc(Nc2nc(N3CCSCC3)nc3c2CN(C(C)C)C3=O)cc1` [Example 5, 6-(propan-2-yl)-4-{[4-(propan-2-yl)phenyl]amino}-2-(thiomorpholin-4-yl)-5,6-dihydro-7H-pyrrolo[3,4-d]pyrimidin-7-one] registered an EC50 of 3770 nM.
Consider `CN(C)C(=O)CN1Cc2nc(C3=CCOCC3)nc(Nc3ccc(C4CCCCC4)cc3)c2C1` [Example 111, 2-{4-[(4-cyclohexylphenyl)amino]-2-(3,6-dihydro-2H-pyran-4-yl)-5,7-dihydro-6H-pyrrolo[3,4-d]pyrimidin-6-yl}-N,N-dimethylacetamide], for which the EC50 was 5350 nM.
On to `CC(C)N1Cc2c(Nc3ccc(C4CCCCC4)cc3)nc(N3CCOCC3)nc2C1=O` [Example 11, 4-[(4-cyclohexylphenyl)amino]-2-(morpholin-4-yl)-6-(propan-2-yl)-5,6-dihydro-7H-pyrrolo[3,4-d]pyrimidin-7-one], for which the EC50 came to 2010 nM.
In the case of `C[C@@H]1CN(c2nc(Nc3ccc(C4CCCCC4)cc3)c3cc(N)cnc3n2)CCO1` [Example 108, (R)—N4-(4-cyclohexylphenyl)-2-(2-methylmorpholino)pyrido[2,3-d]pyrimidine-4,6-diamine], a half-maximal effect (EC50) was put at 1970 nM.
Take `CC(C)N1Cc2c(Nc3ccc(C4CCCCC4)cc3)nc(C3CCOCC3)nc2C1=O` [Example 78, 4-((4-cyclohexylphenyl)amino)-6-isopropyl-2-(tetrahydro-2H-pyran-4-yl)-5,6-dihydro-7H-pyrrolo[3,4-d]pyrimidin-7-one]: the response was half-maximal at 3080 nM (EC50). This EC50 is about 1.6-fold higher than that of the compound before.
The compound `CC(C)C1CN(c2nc(Nc3ccc(C4CCCCC4)cc3)c3c(n2)C(=O)N(C(C)C)C3)CCO1` (stereo not shown) [Example 18, 4-[(4-cyclohexylphenyl)amino]-6-(propan-2-yl)-2-[2-(propan-2-yl)morpholin-4-yl]-5,6-dihydro-7H-pyrrolo[3,4-d]pyrimidin-7-one] displayed an EC50 of 1390 nM.
On to `CC(C)N1Cc2c(Nc3ccc(C4CCCCC4)cc3)nc(N(C)Cc3ccon3)nc2C1=O` [Example 22, 4-[(4-cyclohexylphenyl)amino]-2-{methyl[(1,2-oxazol-3-yl)methyl]amino}-6-(propan-2-yl)-5,6-dihydro-7H-pyrrolo[3,4-d]pyrimidin-7-one], for which the midpoint of the response, the EC50, lay at 2790 nM. This EC50 lies about 2-fold higher than the previous one.
Consider `CC(C)N1Cc2c(Nc3ccc(C4CCCCC4)cc3)nc(N(C)CCc3ncon3)nc2C1=O` [Example 23, 4-[(4-cyclohexylphenyl)amino]-2-{methyl[2-(1,2,4-oxadiazol-3-yl)ethyl]amino}-6-(propan-2-yl)-5,6-dihydro-7H-pyrrolo[3,4-d]pyrimidin-7-one], for which a half-maximal effect (EC50) was put at 2920 nM.
The compound `COC(=O)c1cnc2nc(N3CCO[C@H](C)C3)nc(Nc3ccc(C4CCCCC4)cc3)c2c1` [Example 102, methyl (R)-4-((4-cyclohexylphenyl)amino)-2-(2-methylmorpholino) pyrido[2,3-d]pyrimidine-6-carboxylate] came in with an EC50 of 700 nM.
Turning to `Cc1ccccc1-c1ccc(Nc2nc(C3=CCOCC3)nc3c2CN(C(C)C)C3=O)cc1` [Example 80, 2-(3,6-dihydro-2H-pyran-4-yl)-6-isopropyl-4-((2′-methyl-[1,1′-biphenyl]-4-yl)amino)-5,6-dihydro-7H-pyrrolo[3,4-d]pyrimidin-7-one], a half-maximal response (EC50) required 1800 nM. This EC50 is about 2.6-fold higher than that of the compound before.
Turning to `CC(C)N1Cc2c(Nc3ccc(C4CCCCC4)cc3)nc(-c3ccnc(C#N)c3)nc2C1=O` [Example 41, 4-(4-((4-cyclohexylphenyl)amino)-6-isopropyl-7-oxo-6,7-dihydro-5H-pyrrolo[3,4-d]pyrimidin-2-yl)picolinonitrile], a half-maximal effect (EC50) was put at 518 nM.
The result for `CC(C)N1Cc2c(Nc3ccc(C(F)(F)C(F)(F)F)cc3)nc(N3CCOCC3)nc2C1=O` [Example 83, 2-(morpholin-4-yl)-4-{[4-(pentafluoroethyl)phenyl]amino}-6-(propan-2-yl)-5,6-dihydro-7H-pyrrolo[3,4-d]pyrimidin-7-one] reads 3880 nM.
The compound `CC(C)N1Cc2c(Nc3ccc(C4CCCCC4)cc3)nc(N3CCO[C@H](CNC(=O)OC(C)(C)C)C3)nc2C1=O` [Example 17, tert-butyl {[(2R)-4-{4-[(4-cyclohexylphenyl)amino]-7-oxo-6-(propan-2-yl)-6,7-dihydro-5H-pyrrolo[3,4-d]pyrimidin-2-yl}morpholin-2-yl]methyl}carbamate] yielded an EC50 of 1090 nM. Against the preceding compound, the EC50 is about 3.6-fold lower.
`C#CCCC1(CCOc2ccc(-c3ccc(Nc4nc(N5CCOC(C6CC6)C5)nc5c4CN(C(C)C)C5=O)cc3)cc2)N=N1` (stereo not shown) [Example 54, 4-[(4′-{2-[3-(but-3-yn-1-yl)-3H-diaziren-3-yl]ethoxy}[1,1′-biphenyl]-4-yl)amino]-2-(2-cyclopropyl-morpholin-4-yl)-6-(propan-2-yl)-5,6-dihydro-7H-pyrrolo[3,4-d]pyrimidin-7-one] returned an EC50 of 253 nM.
Next, `CCN1Cc2c(Nc3ccc(C(C)C)cc3)nc(N3CCO[C@H](C)C3)nc2C1=O` [Example 67, 6-ethyl-2-[(2R)-2-methylmorpholin-4-yl]-4-{[4-(propan-2-yl)phenyl]amino}-5,6-dihydro-7H-pyrrolo[3,4-d]pyrimidin-7-one]: 4070 nM; `CC(C)N1Cc2c(Nc3ccc(C4CCCCC4)cc3)nc(N3CCOC(CC(F)(F)F)C3)nc2C1=O` (stereo not shown) [Example 16, 4-[(4-cyclohexylphenyl)amino]-6-(propan-2-yl)-2-[2-(2,2,2-trifluoroethyl)morpholin-4-yl]-5,6-dihydro-7H-pyrrolo[3,4-d]pyrimidin-7-one]: 749 nM.
`C[C@@H]1CN(c2nc3c(c(Nc4ccc(C5CCCCC5)cc4)n2)COC3)CCO1` [Example 90, (R)—N-(4-cyclohexylphenyl)-2-(2-methylmorpholino)-5,7-dihydrofuro[3,4-d]pyrimidin-4-amine] showed an EC50 of 1710 nM.
In turn, `CC(C)c1ccc(Nc2nc(N3CCO[C@@H](C)C3)nc3c2CN(C(C)C)C3=O)cc1` [Example 6, 2-[(2S)-2-methylmorpholin-4-yl]-6-(propan-2-yl)-4-{[4-(propan-2-yl)phenyl]amino}-5,6-dihydro-7H-pyrrolo[3,4-d]pyrimidin-7-one] gave an EC50 of 6820 nM. This EC50 lies about 4-fold higher than the previous one.
As to `Cc1cc(-c2nc3c(c(Nc4ccc(C5CCCCC5)cc4)n2)COC3)ccn1` [Example 95, N-(4-cyclohexylphenyl)-2-(2-methylpyridin-4-yl)-5,7-dihydrofuro[3,4-d]pyrimidin-4-amine], the EC50 was determined as 3220 nM.
The compound `C1=C(c2nc(Nc3ccc(C4CCCCC4)cc3)c3cccnc3n2)CCOC1` [Example 98, N-(4-cyclohexylphenyl)-2-(3,6-dihydro-2H-pyran-4-yl)pyrido[2,3-d]pyrimidin-4-amine] had an EC50 of 5530 nM.
